Source: patent US10626112B2, “Heterocyclic sulfonamide derivative and medicine comprising same” (EA PHARMA CO., LTD., priority 2014, dated 2020)

Biological target: human TRPA1 (Homo sapiens (Human), UniProt O75762)
Assay: Measurement of TRPA1 antagonist activity (1): intracellular calcium increase
Type: cell-based
Settings: 293T cells transfected with human TRPA1 expression plasmid; allylisothiocyanate 20 μM stimulation; intracellular calcium fluorescence; read-out: hTRPA1 IC50
Outline: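 HEK293T cells transiently transfected with full-length human TRPA1, loaded with Calcium4 dye in HBSS/20 mM HEPES pH 7.2. Test compound preincubated 10 min, then allylisothiocyanate added at 20 μM final and fluorescence change followed for 5 min. IC50 from sigmoid fit of percent inhibition relative to agonist and buffer controls.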

human TRPA1, sequence (O75762 whole entry): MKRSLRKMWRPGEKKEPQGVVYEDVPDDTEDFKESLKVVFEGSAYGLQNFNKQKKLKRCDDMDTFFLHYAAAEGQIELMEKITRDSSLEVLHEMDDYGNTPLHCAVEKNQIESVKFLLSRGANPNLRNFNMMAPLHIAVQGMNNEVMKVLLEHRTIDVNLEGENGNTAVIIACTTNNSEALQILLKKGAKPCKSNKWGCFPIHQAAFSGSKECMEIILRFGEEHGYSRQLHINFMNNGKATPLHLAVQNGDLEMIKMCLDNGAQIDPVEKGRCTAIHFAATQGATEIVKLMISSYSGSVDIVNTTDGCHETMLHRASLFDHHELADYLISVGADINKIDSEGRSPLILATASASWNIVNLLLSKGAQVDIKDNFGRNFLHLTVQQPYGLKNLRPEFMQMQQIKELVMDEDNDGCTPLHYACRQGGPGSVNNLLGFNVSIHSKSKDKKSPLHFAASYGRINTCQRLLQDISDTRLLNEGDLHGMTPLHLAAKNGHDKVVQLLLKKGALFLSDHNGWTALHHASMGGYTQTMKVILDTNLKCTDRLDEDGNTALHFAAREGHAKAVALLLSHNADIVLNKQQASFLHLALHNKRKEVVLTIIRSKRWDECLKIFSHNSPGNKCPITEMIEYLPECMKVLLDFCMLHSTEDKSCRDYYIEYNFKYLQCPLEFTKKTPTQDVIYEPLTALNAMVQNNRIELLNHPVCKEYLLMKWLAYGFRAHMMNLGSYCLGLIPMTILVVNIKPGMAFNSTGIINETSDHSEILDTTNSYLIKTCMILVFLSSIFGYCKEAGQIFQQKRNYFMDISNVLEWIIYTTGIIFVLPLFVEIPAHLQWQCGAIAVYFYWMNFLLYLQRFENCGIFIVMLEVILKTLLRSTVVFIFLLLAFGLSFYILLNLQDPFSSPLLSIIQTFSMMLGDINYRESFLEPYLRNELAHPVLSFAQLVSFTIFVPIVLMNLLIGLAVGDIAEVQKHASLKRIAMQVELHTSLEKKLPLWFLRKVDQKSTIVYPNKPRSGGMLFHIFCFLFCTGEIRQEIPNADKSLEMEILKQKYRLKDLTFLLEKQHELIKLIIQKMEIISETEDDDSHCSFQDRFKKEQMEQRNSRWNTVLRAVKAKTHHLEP

Compound	IC50 [µM]
O=C(NCc1cc(-c2ccc(C(F)(F)F)cn2)ccn1)[C@@H]1C[C@@H](c2ccccc2)CN1S(=O)(=O)c1cc2cc(F)ccc2o1 [Example 260, (2S,4S)-1-(5-fluorobenzofuran-2-yl)sulfonyl-4-phenyl-N-[[4-[5-(trifluoromethyl)-2-pyridyl]-2-pyridyl]methyl]pyrrolidine-2-carboxamide]	0.051
C[C@H](NS(=O)(=O)c1cc2ccccc2o1)C(=O)NCc1cc(-c2ccc(C(F)(F)F)nc2)ccn1 [Example 105, (2S)-2-(benzofuran-2-ylsulfonylamino)-N-[[4-[6-(trifluoromethyl)-3-pyridyl]-2-pyridyl]methyl]propanamide]	0.068
O=C(NCc1ccnc(-c2ccc(C(F)(F)F)cc2)c1)[C@@H]1CCCN1S(=O)(=O)c1cc2cc(F)ccc2o1 [Example 128, (2S)-1-(5-fluorobenzofuran-2-yl)sulfonyl-N-[[2-[4-(trifluoromethyl)phenyl]-4-pyridyl]methyl]pyrrolidine-2-carboxamide]	0.00061
C[C@H](NS(=O)(=O)c1cc2cc(F)ccc2o1)C(=O)NCc1cc(-c2ccc(C(F)(F)F)cn2)ncn1 [Example 247, (2S)-2-[(5-fluorobenzofuran-2-yl)sulfonylamino]-N-[[6-[5-(trifluoromethyl)-2-pyridyl]pyrimidin-4-yl]methyl]propanamide]	0.064
O=C(NCc1cccc(OCc2ccc(C(F)(F)F)cc2)c1)[C@@H]1[C@@H](O)CCN1S(=O)(=O)c1cc2ccccc2o1 [Example 45, (2S,3S)-1-(benzofuran-2-ylsulfonyl)-3-hydroxy-N-[[3-[[4-(trifluoromethyl)phenyl]methoxy]-phenyl]methyl]pyrrolidine-2-carboxamide]	0.035
CN(C)c1nc(CNC(=O)[C@@H]2CCCN2S(=O)(=O)c2cc3ccccc3o2)cc(-c2ccc(C(F)(F)F)cc2)n1 [Example 312, (2S)-1-(benzofuran-2-ylsulfonyl)-N-[[2-(dimethylamino)-6-[4-(trifluoromethyl)phenyl]pyrimidin-4-yl]methyl]pyrrolidine-2-carboxamide]	0.0053
O=C(NCc1cccc(-c2ccc(C(F)(F)F)nc2)c1)[C@@H]1[C@@H](O)CCN1S(=O)(=O)c1cc2cc(F)ccc2o1 [Example 93, (2S,3S)-1-(5-fluorobenzofuran-2-yl)sulfonyl-3-hydroxy-N-[[3-[6-(trifluoromethyl)-3-pyridyl]phenyl]methyl]pyrrolidine-2-carboxamide]	0.023
N#Cc1ccc(-c2cc(CNC(=O)[C@@H]3CCCN3S(=O)(=O)c3cc4cc(F)ccc4o3)ccn2)cc1 [Example 132, (2S)-N-[[2-(4-cyanophenyl)-4-pyridyl]methyl]-1-(5-fluorobenzofuran-2-yl)sulfonyl-pyrrolidine-2-carboxamide]	0.0076
CNc1ccc(-c2ccc(F)c(CNC(=O)[C@@H]3CCCN3S(=O)(=O)c3cc4ccccc4o3)c2)cn1 [Example 177, (2S)-1-(benzofuran-2-ylsulfonyl)-N-[[2-fluoro-5-[6-(methylamino)-3-pyridyl]phenyl]methyl]pyrrolidine-2-carboxamide]	0.3
N#Cc1ccc(-c2cccc(CNC(=O)[C@@H]3CCCN3S(=O)(=O)c3cc4cc(F)ccc4o3)n2)cc1 [Example 146, (2S)-N-[[6-(4-cyanophenyl)-2-pyridyl]methyl]-1-(5-fluorobenzofuran-2-yl)sulfonyl-pyrrolidine-2-carboxamide]	0.31
N#Cc1ccc(COc2cccc(CNC(=O)[C@@H]3CCCN3S(=O)(=O)c3cc4ccccc4o3)c2)cc1 [Example 1, (2S)-1-(benzofuran-2-ylsulfonyl)-N-[[3-[(4-cyanophenyl)methoxy]phenyl]methyl]pyrrolidine-2-carboxamide]	0.003
O=C(NCc1cccc(OCc2cccs2)c1)[C@@H]1CCCN1S(=O)(=O)c1cc2ccccc2o1 [Example 5, (2S)-1-(benzofuran-2-ylsulfonyl)-N-[[3-(2-thienylmethoxy)phenyl]methyl]pyrrolidine-2-carboxamide]	0.012
C[C@H](NS(=O)(=O)c1cc2cnccc2o1)C(=O)NCc1ccnc(-c2ccc(C(F)(F)F)cc2O)c1 [Example 303, (2S)-2-(furo[3,2-c]pyridin-2-ylsulfonylamino)-N-[[2-[2-hydroxy-4-(trifluoromethyl)phenyl]-4-pyridyl]methyl]propanamide]	0.042
N#Cc1ccc(-c2ccnc(CNC(=O)[C@@H]3CCCN3S(=O)(=O)c3cc4ccccc4o3)c2)nc1 [Example 152, (2S)-1-(benzofuran-2-ylsulfonyl)-N-[[4-(5-cyano-2-pyridyl)-2-pyridyl]methyl]pyrrolidine-2-carboxamide]	0.16
O=C(NCc1cccc(OCc2ccc(C(F)(F)F)cc2)c1)[C@@H]1CCCN1S(=O)(=O)c1cc2ccc(F)cc2o1 [Example 40, (2S)-1-(6-fluorobenzofuran-2-yl)sulfonyl-N-[[3-[[4-(trifluoromethyl)phenyl]methoxy]-phenyl]methyl]pyrrolidine-2-carboxamide]	0.096
C[C@H](NS(=O)(=O)c1cc2cc(F)ccc2o1)C(=O)NCc1cc(-c2ccc(OC(F)(F)F)cc2)ccn1 [Example 239, (2S)-2-[(5-fluorobenzofuran-2-yl)sulfonylamino]-N-[[4-[4-(trifluoromethoxy)phenyl]-2-pyridyl]methyl]propanamide]	0.017

Compound	IC50 [µM]
O=C(NCc1ccnc(-c2ccccc2)c1)[C@@H]1CCCN1S(=O)(=O)c1cc2ccccc2o1 [Example 112, (2S)-1-(benzofuran-2-ylsulfonyl)-N-[(2-phenyl-4-pyridyl)methyl]pyrrolidine-2-carboxamide]	0.27
C[C@H](NS(=O)(=O)c1cc2cc(F)ccc2o1)C(=O)NCc1ccnc(-c2ccc(C(F)(F)F)cc2)c1 [Example 108, (2S)-2-[(5-fluorobenzofuran-2-yl)sulfonylamino]-N-[[2-[4-(trifluoromethyl)phenyl]-4-pyridyl]methyl]propanamide]	0.013
O=C(NCc1cc(-c2ccc(C(F)(F)F)cn2)ccn1)[C@@H]1CCCN1S(=O)(=O)c1cc2cnccc2o1 [Example 272, (2S)-1-furo[3,2-c]pyridin-2-ylsulfonyl-N-[[4-[5-(trifluoromethyl)-2-pyridyl]-2-pyridyl]methyl]pyrrolidine-2-carboxamide]	0.012
C[C@H](NS(=O)(=O)c1cc2cc(F)ccc2o1)C(=O)NCc1cccc(-c2ccc(C(F)(F)F)nc2)c1 [Example 106, (2S)-2-[(5-fluorobenzofuran-2-yl)sulfonylamino]-N-[[3-[6-(trifluoromethyl)-3-pyridyl]phenyl]methyl]propanamide]	0.01
O=C(NCc1cc(-c2ccc(C(F)(F)F)cn2)ccn1)[C@@H]1CC=CCN1S(=O)(=O)c1cc2cc(F)ccc2o1 [Example 263, (2S)-1-(5-fluorobenzofuran-2-yl)sulfonyl-N-[[4-[5-(trifluoromethyl)-2-pyridyl]-2-pyridyl]methyl]-3,6-dihydro-2H-pyridine-2-carboxamide]	0.021
COc1cc(CNC(=O)[C@@H]2CCCN2S(=O)(=O)c2cc3ccccc3o2)cc(-c2ccc(C(F)(F)F)nc2)c1 [Example 310, (2S)-1-(benzofuran-2-ylsulfonyl)-N-[[3-methoxy-5-[6-(trifluoromethyl)-3-pyridyl]phenyl]methyl]pyrrolidine-2-carboxamide]	0.0025
N#Cc1ccc(-c2ccnc(CNC(=O)[C@@H]3CCCN3S(=O)(=O)c3cc4ccccc4o3)c2)cc1 [Example 281, (2S)-1-(benzofuran-2-ylsulfonyl)-N-[[4-(4-cyanophenyl)-2-pyridyl]methyl]pyrrolidine-2-carboxamide]	0.022
O=C(NCc1cccc(S(=O)(=O)c2ccc(C(F)(F)F)cc2)c1)[C@@H]1CCCN1S(=O)(=O)c1cc2ccccc2o1 [Example 322, (2S)-1-(benzofuran-2-ylsulfonyl)-N-[[3-[4-(trifluoromethyl)phenyl]sulfonylphenyl]methyl]pyrrolidine-2-carboxamide]	0.31
C#CCN([C@@H](C)C(=O)NCc1ccnc(-c2ccc(C(F)(F)F)nc2)c1)S(=O)(=O)c1cc2cc(F)ccc2o1 [Example 314, (2S)-2-[(5-fluorobenzofuran-2-yl)sulfonyl-prop-2-ynyl-amino]-N-[[2-[6-(trifluoromethyl)-3-pyridyl]-4-pyridyl]methyl]propanamide]	0.0046
O=C(NCc1cccc(OC(F)(F)F)c1)[C@@H]1CCCN1S(=O)(=O)c1cc2ccccc2o1 [Example 62, (2S)-1-(benzofuran-2-ylsulfonyl)-N-[[3-(trifluoromethoxy)phenyl]methyl]-pyrrolidine-2-carboxamide]	0.06
O=C(NCc1cccc(OCc2ccncc2)c1)[C@@H]1CCCN1S(=O)(=O)c1cc2cc(F)ccc2o1 [Example 13, (2S)-1-(5-fluorobenzofuran-2-yl)sulfonyl-N-[[3-(4-pyridylmethoxy)phenyl]methyl]pyrrolidine-2-carboxamide]	0.019
O=C(NCc1ccnc(-c2ccc(C(F)(F)F)cn2)c1)[C@@H]1CCCN1S(=O)(=O)c1cc2ccccc2o1 [Example 178, (2S)-1-(benzofuran-2-ylsulfonyl)-N-[[2-[5-(trifluoromethyl)-2-pyridyl]-4-pyridyl]methyl]pyrrolidine-2-carboxamide]	0.046
O=C(NCc1ccc2occc2c1)[C@@H]1CCCN1S(=O)(=O)c1cc2cc(F)ccc2o1 [Example 74, (2S)-N-(benzofuran-5-ylmethyl)-1-(5-fluorobenzofuran-2-yl)sulfonyl-pyrrolidine-2-carboxamide]	0.11
O=C(NCc1cc(-c2cc(Cl)cs2)ccn1)[C@@H]1CCCN1S(=O)(=O)c1cc2ccccc2o1 [Example 286, (2S)-1-(benzofuran-2-ylsulfonyl)-N-[[4-(4-chloro-2-thienyl)-2-pyridyl]methyl]pyrrolidine-2-carboxamide]	0.18
COc1ccc(-c2cc(CNC(=O)[C@@H]3CCCN3S(=O)(=O)c3cc4cc(F)ccc4o3)ccn2)cc1 [Example 131, (2S)-1-(5-fluorobenzofuran-2-yl)sulfonyl-N-[[2-(4-methoxyphenyl)-4-pyridyl]methyl]pyrrolidine-2-carboxamide]	0.032
